Test results as given in patent US20090298752A1, “APLIDINE TREATMENT OF CANCERS” (PHARMA MAR, S.A., priority 1999, published 2009).
Entries after “also recorded” stand apart in the source; their conditions may differ.

How the values were obtained:
[1] = system: gastric tumours; conditions: 1.25 mg/kg; cited from earlier work
[2] = system: VEGF mRNA; assay: VEGF mRNA in MOLT-4 cells (Rnase protection); format: cell-based, human
[3] = Phase I, 1 h weekly infusion x3 q4wk: toxicity and pharmacokinetics; format: in vivo, human
[4] = system: Gastric MRI-H254; assay: sc xenograft, gastric tumour, mouse; format: in vivo; conditions: for Activity (% T/C.): xenograft, mouse
Experimental: (§1) Different model systems were evaluated to provide the basis for further clinical work. Selective antitumour activities were seen against two histologically different solid tumours: human gastric and prostate carcinomas. Potent in vitro activity to primary gastric tumour specimens or Hs746T gastric tumour cells is evident with IC30 values of 146 and 450 pM, respectively. […] activities were evaluated in nude rodents using sc implanted tumour fragments or hollow fibres (HF) containing tumour cells.
(§2) Follow-up studies necessitated using rats for iv infusions. With this variation, a 24 hr iv infusion schedule produced similar activities against HF gastric (20%) and HF prostate (31%) tumour cells. Cytotoxicity was also found using a 5 day iv infusion schedule against HF prostate tumour cells (33%).

[5] = system: prostate tumour; conditions: 1.25 mg/kg; cited from earlier work
[6] = system: Gastric MRI-H254; assay: sc hollow fibre (HF), gastric tumour cells, rat; format: in vivo; conditions: 24 hr.iv inf., 0.7 mg/kg
Experimental: as §1, §2

[7] = system: Prostate PC-3; assay: sc xenograft, prostate tumour, mouse; format: in vivo; conditions: for Activity (% T/C.): xenograft, mouse
Experimental: as §1, §2

[8] = system: cardiac H9 c2 (2-1); assay: CellTiter96 (MTS) in vitro cytotoxicity assay; format: cell-based
Text: (§3) In fact, the dose limiting toxicity in humans is skeletal muscle atrophy.

[9] = system: kidney (NRK-52E) cells; assay: CellTiter96 (MTS) in vitro cytotoxicity assay; format: cell-based
Text: as §3

[10] = system: skeletal muscle (L8); assay: CellTiter96 (MTS) in vitro cytotoxicity assay; format: cell-based
Text: as §3

[11] = system: myelogenous stem cells (FDC-P1); assay: CellTiter96 (MTS) in vitro cytotoxicity assay; format: cell-based
Text: as §3

[12] = system: liver (AML-12); assay: CellTiter96 (MTS) in vitro cytotoxicity assay; format: cell-based
Text: as §3

[13] = system: solid tumours and non-Hodgkin lymphoma; assay: Phase I, 24 h infusion every 2 weeks: antitumour activity; format: in vivo, human
Experimental: Aplidine is given as a 24 hour infusion every 2 weeks. The starting dose was 200 μg/m^2/d and dose escalation proceed including so far 400, 800, 1600, and 3200 μg/m^2/d. A total of 18 patients (M/F: 7/11, median age 52, OMS 0/1:10/8) have been entered. […] Among evaluable patients, toxicity consisted of mild grade I-II nausea/vomiting, grade I-II asthenia, and cramping occurring during or immediately after the infusion. No neuromuscular toxicity were reported at the evaluated doses. One patient with an advanced lung cancer and documented tumour progression at the dose of 1600 μg/m^2 developed a haemolytic anaemia and thrombocytopenia that was considered unlikely related to the study drug. […] An open 2-compartment model fits appropriately most plasma concentration profiles. […] The accrual is ongoing to determine the dose limiting toxicity and the dose to be recommended in phase II studies.
Aplidine was given to patients with solid tumour/NHL as a 24 hr infusion/q2w to 35 patients (median: age=51/ECOG=1) with solid tumour (32 pts) or NHL (3 pts). 23/35 patients were previously exposed to ≧3 previous lines of chemotherapy. Nine dose levels (200-7000 μg/m^2/w/q2w) and 65 cycles (120 infusions) were given. […] Toxicity consisted of G2-3 asthenia and emesis in 9-2 patients and 12-1 pts, respectively. G3 nausea/vomiting (≧5000 μg/m^2) was efficiently treated then prevented with 4HT3-regimens. […] At the dose of 5000 μg/m^2/w/q2w, 2 patients experienced transient muscle cramps with reversible G3 CPK-MM elevations. Among 9 patients treated at 6000 μg/m^2/w, 3 patients experienced an increase of CPK-MM and aldolase after the 3rd injection of aplidine. CPK elevations were G1-2 and not symptomatic in 2 patients but a G3 CPK elevation with G3 muscular pain and loss of muscle strength (DLT) was reported in 1 pt. This was reversible with no sequel. […] Ultrastructural electron microscopy indicated no morphological mitochondria alteration but a lost of the thick myosin filaments. At 7000 μg/m^2/q2w, 4 patients have been entered. […] Mechanistic hypothesis and preventive strategies against muscle toxicity are under evaluation.

[14] = system: primary gastric tumour specimens; assay: in vitro activity on primary gastric tumour specimens; format: cell-based, human
Experimental: as §1

[15] = ip administration, range over regimens

aplidine
T/C [1]: 14% | half life of VEGF mRNA, in words [2]: does not change the half life of VEGF mRNA | levels of VEGF mRNA, in words ([2]; 20 nM aplidine): strong decrease; also recorded: decrease in the mRNA encoding for VEGF | Alk. Phos. G3 (worst toxicity per patient) ([3]; 2700 mcg/m^2/wk x3, 8 patients, footnote DLT): (1)^(2) | Transaminitis G3 (worst toxicity per patient) ([3]; 2700 mcg/m^2/wk x3, 8 patients, one with Hepatitis C, 2 reversible by day 8, 1 DLT): 4 | Myalgia G2 (worst toxicity per patient) ([3]; 3600 mcg/m^2/wk x3, 2 patients): 1 | Optimal activities, xenografted gastric tumours [4, 15]: 17-20% | Activity (% T/C.) ([4]; q4dx3.ip, 1.25 mg/kg): 18% T/C | Activity (% T/C.) ([4]; qd9.ip, 1.05 mg/kg): 17% T/C | Activity (% T/C.) ([4]; qd9.ip, 2.1 mg/kg): 19% T/C | T/C [5]: 25% | Activity (% T/C.) [6]: 20 % T/C | Optimal activities, xenografted prostate tumours [7, 15]: 25-38% | Activity (% T/C.) ([7]; q4dx3.ip, 1.05 mg/kg): 38% T/C | Activity (% T/C.) ([7]; q4dx3.ip, 2.10 mg/kg): 34% T/C | Activity (% T/C.) ([7]; qd9.ip, 0.62 mg/kg): 30% T/C | Activity (% T/C.) ([7]; qd9.ip, 1.25 mg/kg): 25% T/C | LD50 [8]: 1 µM | LD50 [9]: 0.1 nM | LD50 [10]: 0.1 nM | LD50 [11]: 0.1 µM | LD50 [12]: 1 µM | response, patient with non-Hodgkin lymphoma ([13]; Example 6): Clinical improvement | Activity observed in NHL ([13]; Example 14): 1/3 | Activity observed in molecular thyroid ([13]; Example 14): 2/2 | Activity observed in neuroendocrine cancer ([13]; Example 14): 1 pt | Activity observed in renal ([13]; Example 14): 1/5 | antitumour activity in NHL and renal carcinoma ([13]; Example 18): Antitumour activity has been also noted | IC30 [14]: 0.146 nM
